Data published in ChEMBL document CHEMBL3507680, “University of Dundee, Gates Library screen for HepG2 cell viability”.

Test: Human HepG2 cell viability assay in 384 well format
Assay type: toxicity, cell-based
Design: dose 125 nL, time 70.5 hour; cytotoxicity at 70.5 h: concentration not given beside the values
Conditions: HepG2 cells, read-out: Inhibition

| SMILES | cytotoxicity at 70.5 h |
| --- | --- |
| CC(C)(C#N)c1ccccc1CN1CCC(N2CCCC2=O)CC1 | 13.9% |
| COCC(=O)Nc1ccc2c(c1)CN(C(=O)c1ccco1)CC2 | 23.8% |
| O=C(c1cnccn1)N1CCCC2(CCN(Cc3cccnc3)C2)C1 (stereo unspecified) | -4.19% |
| CCn1cc(CN2CCCN(C(=O)c3sccc3C#N)CC2)cn1 | 37.5% |
| Cn1cc(C(=O)N2CCCC(CN3CCCC3=O)C2)cn1 (stereo unspecified) | -7.83% |
| Cc1cnc(C(=O)N2CCC3(CCN(Cc4ccccn4)C3=O)C2)cn1 (stereo unspecified) | 6.84% |
| COc1cc(C2(C(=O)N3CCN(CC(C)(C)O)CC3)CC2)ccc1C | -0.73% |
| CSCCc1n[nH]c2c1CN(S(=O)(=O)c1cn(C)c(C)n1)CC2 | -4.85% |
| Cc1ccc(CN2C[C@H](OCCN(C)C)[C@H]3COC[C@H]32)o1 | -0.961% |
| CC(Cc1ccccc1Br)NC(=O)CCS(C)(=O)=O (stereo unspecified) | 27.4% |
| Cc1cc(NC(=O)CN2CCn3c(nnc3C(C)C)C2)on1 | -0.984% |
| COc1ccnc(N2CCN(C(=O)c3cc(C4CC4)[nH]n3)CC2)n1 | -5.93% |
| Cc1nc(O)c2nnn(C[C@H]3CCCN3C(=O)c3ccccc3F)c2n1 | -0.74% |
| O=C(Cc1ccc(Br)s1)NCC(=O)Nc1cn[nH]c1 | -9.18% |
| Cn1cc(C2(C)CN(Cc3ccc(Cl)c(F)c3)CCO2)cn1 (stereo unspecified) | -7.47% |
| CC(NC(=O)NC1CCN(CC2CCCC2)CC1)c1nccs1 (stereo unspecified) | -6.39% |
| CC(=O)N1CCC(c2nc3ccc(NC4CCC4)cn3n2)CC1 | -5.56% |
| COCCOc1ccc(CNc2nc3ccccc3nc2N)cn1 | -3.46% |
| CNC(=O)CC1COCCN1C(=O)C1(c2ccc(Cl)cc2)CCC1 (stereo unspecified) | 7.35% |
| Cc1ccc(C(=O)NCCCS(=O)(=O)c2ccccc2)c(=O)[nH]1 | -4.85% |
| COc1c(C2CCCN2c2ncnc3c2cnn3C)c(C)nn1C (stereo unspecified) | -5.32% |
| Cc1sc2nc(C(F)(F)F)nc(N3CCN(C)CC3)c2c1C | -4.17% |
| CC(=O)N1CCCC1C(=O)NCCOc1cc(C)cc(C)c1 (stereo unspecified) | -30.3% |

| SMILES | cytotoxicity at 70.5 h |
| --- | --- |
| Cc1nc2cc(=O)[nH]n2c(C)c1CC(=O)NCCCc1ccccc1 | -4.06% |
| NCC1CCCCN1C(=O)Cc1cccc(Br)c1 (stereo unspecified) | -4.6% |
| CC(=O)c1cccc(-c2c[nH]c(C)n2)c1 | -7.11% |
| CO[C@H]1CN(Cc2nc3ccccc3n2C)C[C@@]12CCCO2 | 7.3% |
| COc1ncccc1CNC(=O)c1cc(F)cc(Br)c1 | -2.19% |
| CCC1=N[C@@]2(CC[C@@H]3CN(S(=O)(=O)N(C)C)C[C@@H]32)C(=O)N1CC(C)C | -3.81% |
| COc1ncccc1C(=O)N1CCCC1c1nc(-c2ccccc2)no1 (stereo unspecified) | -5.54% |
| CS(=O)(=O)c1ccc(NCc2ccccc2)cn1 | -2.92% |
| Cc1ccc(C(=O)N2CCCN(Cc3cccs3)CC2)c(=O)[nH]1 | -0.458% |
| CNC(=O)[C@@H]1[C@H]2CNCCN2C[C@H]1c1ccccc1 | -6.11% |
| Cn1cccc1C(=O)N1CCC2(CC1)CN(c1cncnc1)C(=O)CO2 | 8.12% |
| CN(C)C(=O)N[C@@H]1CN(S(C)(=O)=O)[C@@H]2CCCO[C@@H]21 | 47.9% |
| Cc1nn(CCO)c(C)c1CNC1CCc2c(Cl)cccc21 (stereo unspecified) | 10.2% |
| O=C(Cc1ccc(F)cc1)N1CCCC(c2n[nH]c3nccnc23)C1 (stereo unspecified) | 11.2% |
| CCN(Cc1cc(Cl)ccc1OC)Cc1nccn1C | 12.7% |
| CC(C(=O)N1CCC(Cc2ccc(F)cc2)CC1)n1ccnc1 (stereo unspecified) | 20.4% |
| Cc1cc(CCC(N)=O)cc(C2CCCN2Cc2ccnn2C)n1 (stereo unspecified) | -6.78% |
| O=C1N(c2ccc(F)cc2)Cc2nc(=O)n(Cc3cccc(Cl)c3)n21 | -0.858% |
| Cc1nn(C)c2nc(-c3ccccn3)nc(NC[C@@H]3CCCO3)c12 | 2.37% |
| Cc1ncsc1C(=O)N1CCc2[nH]nc(-c3ccc4c(c3)OCO4)c2C1 | 13.6% |
| CN(C)c1cc2c(nn1)CCN(C(=O)Cc1noc3ccccc13)C2 | 9.27% |
| CN1CCN(C(=O)c2cc(C#N)cs2)c2ccccc2C1 | -0.662% |
| CCC(NS(=O)(=O)N1CCOCC1)c1ccccc1OC (stereo unspecified) | -2.95% |

| SMILES | cytotoxicity at 70.5 h |
| --- | --- |
| CCN1CCN(S(=O)(=O)c2cc(C)c(Cl)cc2C)CC1 | 2.46% |
| CS(=O)(=O)NCCN1CCSCC1c1ccc(Cl)cc1 (stereo unspecified) | -2.66% |
| Cn1ccnc1CN1CCC(Cc2ccccn2)CC1 | 17.2% |
| Cc1ccc(CN2C[C@@H]3[C@@H](C(=O)NCC(C)C)CCS(=O)(=O)[C@@H]3C2)cc1 | -1.42% |
| COc1ccccc1CCN1CCCC(CN(C)Cc2c[nH]c(C)n2)C1 (stereo unspecified) | 14.9% |
| Cc1nnc2n1CCN(Cc1c(Cl)ccc3cccnc13)C2 | 26.2% |
| O=C(c1cnc(C2CC2)nc1)N1CCCC(c2nccs2)C1 (stereo unspecified) | 27.6% |
| CC(=O)c1c(C)nn(CC(=O)N2CCCC2c2ccc(C(N)=O)s2)c1C (stereo unspecified) | -2.76% |
| CN(Cc1ccncc1)C(CO)c1cccc(F)c1 (stereo unspecified) | -27.2% |
| Cc1cc(C(=O)NCc2ccnc(OCC(F)(F)F)c2)on1 | 16.2% |
| O=C1COC2(CCN(c3ncccn3)CC2)CN1c1ccsc1 | -4.75% |
| COCCN1CCC2(CC1)CC(OCC1CC1)c1ccc(C)cc12 (stereo unspecified) | 5.78% |
| CC(NC1(CNC(=O)OC(C)(C)C)CCOCC1)c1ccccc1 (stereo unspecified) | -5.89% |
| Cc1ccc(CCNC(=O)NCc2cccc(OC(F)F)c2)cn1 | -8.89% |
| O=S(=O)(C1CC1)N1CC[C@H]2OCC[C@@]2(COc2ncccc2F)C1 | -12.6% |
| Cc1nc(CN2CCCC(Nc3ncnc4ccccc34)C2)no1 (stereo unspecified) | -5.36% |
| c1cc(-c2nnc(C3(c4ccc5c(c4)OCO5)CCOCC3)o2)ccn1 | -11.2% |
| FC1(F)CCN(Cc2cccnc2)CC12CCN(c1ccccc1)C2 (stereo unspecified) | -1.56% |
| CN(C)C(=O)C1CCN(C(=O)c2c[nH]c3cc(Cl)ccc23)CC1 | -8.29% |
| COC(=O)CNC(=O)c1c(-n2cnnn2)sc2c1CCCC2 | -14.5% |
| COC(=O)[C@H]1CN(S(C)(=O)=O)CCN1S(C)(=O)=O | -2.09% |
| CN(C)c1cc2c(nn1)CCN(C(=O)c1cc3ccccc3o1)C2 | -11.3% |
| CN(CC(=O)N1CCC(N(C)c2ccccc2)CC1)c1cnccn1 | 0.531% |

| SMILES | cytotoxicity at 70.5 h |
| --- | --- |
| O=c1n(CCSCCOc2ccc(Br)cc2)nc2ccccn12 | -10.7% |
| CC(C)c1cc(C(=O)N2CCN(c3ccc(F)c(Cl)c3)CC2)n(C)n1 | -4.92% |
| CCc1nnc(CN(CC)C(=O)C2CCC(=O)N(C3CCCC3)C2)o1 (stereo unspecified) | -4.66% |
| CNC(=O)NC(=O)CN1CCCC(Cc2ccccc2OC)C1 (stereo unspecified) | -6.62% |
| O=C(Nc1ncn(CC(=O)N2CCCCCC2)n1)C1CCCO1 (stereo unspecified) | 2.64% |
| FC(F)(F)Oc1cccc(CNC[C@H]2Cn3ccnc3CO2)c1 | 0.704% |
| CCc1nc(NC2CC(=O)N(CC3CCCCC3)C2)ncc1C (stereo unspecified) | -8.17% |
| OC1(c2cn(C3CCN(C4CCSC4)CC3)nn2)CCCC1 (stereo unspecified) | -4.72% |
| O=C(NCc1ccccc1CN1CCOCC1)c1ccc(Br)cc1F | 2.01% |
| CC(C)c1nccn1C1CCCN(C(=O)CCc2cnn(C)c2)C1 (stereo unspecified) | -10.7% |
| CC(C)CN1CCc2[nH]cnc2C12CCN(C(=O)c1ccc[nH]1)CC2 | -3.93% |
| CC(=O)c1cccc(S(=O)(=O)N2CSCC2C(=O)NCC(F)(F)F)c1 (stereo unspecified) | 5.48% |
| Cc1cccc(N(CCC(N)=O)C(=O)c2ccnc(C)n2)c1 | -13.8% |
| CCC(C)(C)NC(=O)Cn1nc(C)nc1-c1ccccc1 | -0.158% |
| Cc1nn(C)c(C)c1CCC(=O)N(C)Cc1ccc(C#N)cc1 | 1.66% |
| CC(C)n1ccnc1CN1CCCN(C(=O)CC2C=CCC2)CC1 (stereo unspecified) | 31.4% |
| O=C(C1CCOCC1)N1CCO[C@H]2[C@@H](OCC3CC3)CC[C@@H]21 | -6.56% |
| CN1CCCN(Cc2nc(Cc3ccccc3)n[nH]2)CC1 | -3.87% |
| Cc1nn(C)c2nc(C3CC3)c(Cl)c(C(=O)O)c12 | 0.618% |
| CC(=O)NCC(=O)N1CCc2c(CN(C)C)nn(C(C)C)c2C1 | -2.84% |
| CC(=O)N1CCC(NCc2cccnc2N(C)Cc2ccccc2)CC1 | -6.72% |
| CCOCC(=O)N1CCC(c2nccn2Cc2cscn2)CC1 | 21.4% |
| CCn1ncc2c1CCCC2NCc1cc(Cl)c(OC)c(OC)c1 (stereo unspecified) | 27.8% |

| SMILES | cytotoxicity at 70.5 h |
| --- | --- |
| Cc1ccc(N2C[C@@H]3CN(Cc4ccsc4)CCO[C@@H]3C2)nn1 | -11.5% |
| CC(C)[C@H]1CN(CCCO)C[C@@H]1NC(=O)CCS(C)(=O)=O | -3.16% |
| CN(CCc1cccs1)C(=O)Nc1cnn(CC2CCCO2)c1 (stereo unspecified) | -16% |
| Cc1cc2c(=O)n3c(nc2s1)CCN(Cc1cnc(C)n1C)CC3 | -4.27% |
| O=C(c1cnn2c(-c3ccco3)ccnc12)N1CCCCCC1 | -8.53% |
| CS(=O)(=O)N1C[C@@H]2CC[C@H](C1)N(C(=O)CCc1n[nH]c3c1CCCC3)C2 | 27.3% |
| Cc1noc(C)c1CN1CCC(N(C)Cc2nnc(C3CC3)n2C)C1 (stereo unspecified) | -2.84% |
| Cc1ccccc1N1CCN(C(=O)c2cccnc2-n2cncn2)CC1 | -6.93% |
| COc1cc(OC)cc(N2CCC(NCc3occc3C)C2=O)c1 (stereo unspecified) | 31% |
| CN(CCCc1ccccc1)C(=O)CCc1nc(-c2nnc[nH]2)no1 | -0.426% |
| OC(CNC1CCOCC1)c1cccc(OCc2ccccc2)c1 (stereo unspecified) | -10.5% |
| Cc1ccc(OC2(C(=O)O)CCN(C(=O)CCc3ccco3)CC2)cc1 | -3.25% |
| COc1ccc([C@@H]2CN(C(=O)CS(C)(=O)=O)C[C@H]2NC(C)=O)cc1 | -2.94% |
| Cc1nn(-c2ccccn2)c2c1C(c1cnn(C)c1)SCC(=O)N2 (stereo unspecified) | -27.3% |
| O=C(CCN1CCCC1C1CCCCC1)N1CCc2sccc2C1 (stereo unspecified) | 2.92% |
| Cc1occc1C(=O)N1CCCC(c2nncn2C)C1 (stereo unspecified) | -6.07% |
| Cc1cccc(C(=O)Nc2c(C(=O)N(C)C)nn(C)c2C)c1 | -3.25% |
| Cn1ncc2c(N[C@@H]3CS(=O)(=O)C[C@H]3O)nc(C(C)(C)C)nc21 | -9.52% |
| Cc1c(Cl)cccc1NC(=O)N1CCC2(CC1)NC(=O)CC2C(=O)O (stereo unspecified) | 1.01% |
